Experimental findings from patent publication US12503438B2, “Compounds for the treatment of kinase-dependent disorders” (Exelixis, Inc., priority 2019, dated 2025) are described below.

The target of one experiment is KDR (Homo sapiens, UniProt P35968). Put plainly: Human KDR kinase assay (33P-phosphoryl transfer radiometric, KinaseProfiler). Also on record: Human KDR (residues K790-V1356, 55 nM); purchased Eurofins Pharma Discovery Services UK Limited (KinaseProfiler service). The note with it: biochemical activity; 10 μM ATP. How it is done:
Kinase activity and compound inhibition were investigated using the ^33P-Phosphoryl transfer radiometric kinase assay, performed using the KinaseProfiler™ service of Eurofins Pharma Discovery Services UK Limited. Dose-response experiments were performed using nine compound concentrations in a 96-well microtiter plate. For each assay, all compounds were prepared to a 50× final assay concentration (50 μM) in 100% DMSO, then diluted in a half-log series, with the final top concentration at 1 μM. This working stock of the compound was added to the assay well as the first component in the reaction, followed by the remaining components as detailed in the following assay protocols below. The positive control wells (100% kinase activity) contain all components of the reaction including 2% DMSO (control for solvent effects), except the compound of interest. Blank wells contain all components of the reaction, with the reference inhibitor, staurosporine. This reference compound was used to abolish kinase activity and generated the 0% kinase activity base-line. IC50 values were calculated by nonlinear regression analysis using the sigmoidal dose-response (variable slope) curve fit on XLFit version 5.3 (ID Business Solutions).
Human KDR (residues K790-V1356, 55 nM) was incubated with 8 mM MOPS pH 7.0, 0.2 mM EDTA, 0.33 mg/mL myelin basic protein, 10 mM magnesium acetate, and 10 μM [γ-^33P-ATP]. The reaction was initiated by the addition of the Mg/ATP mix. After incubation for 40 minutes at room temperature, the reaction was stopped by the addition of phosphoric acid to a concentration of 0.5%. A reaction aliquot of 10 μL was then spotted onto a P30 filtermat and washed four times for 4 minutes in 0.425% phosphoric acid and once in methanol prior to drying and scintillation counting. Incorporated ^33P was measured using the Wallac Microbeta scintillation counter (Perkin Elmer).

The target of another experiment is T1, AXL (Homo sapiens, UniProt P30530).
T1 construct: endogenous in cells; host or cells: A-172 glioblastoma cells (ATCC #CRL-1620)
T1 sequence (P30530 26-894): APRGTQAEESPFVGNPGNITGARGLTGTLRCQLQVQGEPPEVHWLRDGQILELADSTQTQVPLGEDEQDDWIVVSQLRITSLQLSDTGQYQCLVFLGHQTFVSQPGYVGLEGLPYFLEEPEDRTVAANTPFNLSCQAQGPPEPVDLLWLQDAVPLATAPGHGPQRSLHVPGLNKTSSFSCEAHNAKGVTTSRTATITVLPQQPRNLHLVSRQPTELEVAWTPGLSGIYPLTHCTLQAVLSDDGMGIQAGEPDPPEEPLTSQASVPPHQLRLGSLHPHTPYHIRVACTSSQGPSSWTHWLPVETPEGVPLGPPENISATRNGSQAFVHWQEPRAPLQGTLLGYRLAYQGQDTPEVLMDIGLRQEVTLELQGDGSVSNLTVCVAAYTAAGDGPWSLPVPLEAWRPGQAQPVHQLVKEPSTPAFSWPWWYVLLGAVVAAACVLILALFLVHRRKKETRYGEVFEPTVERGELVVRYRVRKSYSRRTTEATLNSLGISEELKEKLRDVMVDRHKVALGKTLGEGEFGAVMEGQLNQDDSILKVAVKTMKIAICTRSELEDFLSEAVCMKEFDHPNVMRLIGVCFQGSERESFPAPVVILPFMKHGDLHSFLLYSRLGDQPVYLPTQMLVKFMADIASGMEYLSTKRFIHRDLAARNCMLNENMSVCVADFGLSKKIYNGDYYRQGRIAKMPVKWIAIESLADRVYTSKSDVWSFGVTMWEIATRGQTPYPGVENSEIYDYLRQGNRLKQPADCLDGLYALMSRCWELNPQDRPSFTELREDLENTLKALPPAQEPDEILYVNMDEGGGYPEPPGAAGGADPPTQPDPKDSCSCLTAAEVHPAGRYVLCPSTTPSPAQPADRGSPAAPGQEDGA
Put plainly: AXL autophosphorylation ELISA in A-172 cells. The format is cell-based. The note with it: cellular activity, Gas6-stimulated, phospho-AXL ELISA. In short, it runs like this: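 Serum-starved (24 h) A-172 glioblastoma cells got an 8-point compound series (0.3% DMSO) for 1 h, then 1 μg/mL human Gas6 for 15 min. Lysate phospho-AXL quantified by ELISA against phospho-AXL standard, normalized to DMSO and reference-inhibitor controls; IC50 by 4-parameter logistic fit.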
A general note: In an ELISA, binding on a coated surface is turned into a signal by an enzyme label.

pIC50: −log10 of the molar value. A value given as a limit tells only on which side of the number the result lay.

KDR, sequence (P35968 790-1356): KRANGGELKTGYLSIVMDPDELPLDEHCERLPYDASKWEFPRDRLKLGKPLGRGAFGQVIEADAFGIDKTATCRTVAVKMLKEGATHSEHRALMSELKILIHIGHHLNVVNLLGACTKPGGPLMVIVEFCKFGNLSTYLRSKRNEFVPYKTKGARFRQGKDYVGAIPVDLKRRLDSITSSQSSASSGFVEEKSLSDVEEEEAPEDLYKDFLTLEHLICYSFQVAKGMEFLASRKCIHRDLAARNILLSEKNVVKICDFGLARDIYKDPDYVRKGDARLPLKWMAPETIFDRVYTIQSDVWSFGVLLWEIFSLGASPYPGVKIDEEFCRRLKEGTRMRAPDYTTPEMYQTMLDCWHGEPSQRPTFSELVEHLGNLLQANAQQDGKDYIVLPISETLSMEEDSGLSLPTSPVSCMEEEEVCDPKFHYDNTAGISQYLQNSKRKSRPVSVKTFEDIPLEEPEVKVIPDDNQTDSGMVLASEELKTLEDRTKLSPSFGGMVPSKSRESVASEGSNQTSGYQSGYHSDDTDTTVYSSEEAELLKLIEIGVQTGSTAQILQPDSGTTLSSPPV

As a reminder, the pIC50 is the IC50 on a negative log10 scale, so that one unit is a factor of ten. `CN1CCC(n2cc(-c3ccc4c(Oc5ccc(NC(=O)C6(C(=O)Nc7ccc(F)cc7)CC6)cc5)ccnc4c3)cn2)CC1` [Compound 61, 1-N′-(4-Fluorophenyl)-1-N-[4-[7-[1-(1-methylpiperidin-4-yl)pyrazol-4-yl]quinolin-4-yl]oxyphenyl]cyclopropane-1,1-dicarboxamide]: the pIC50 on KDR is 7.00 to 8.00; on AXL it was ≥ 8.00.
On to `Cc1cc2c(Oc3ccc(NC(=O)C4(C(=O)Nc5ccc(F)cc5)CC4)cc3)ccnc2cc1-c1cnn(C)c1` [Compound 78, 1-N′-(4-Fluorophenyl)-1-N-[4-[6-methyl-7-(1-methylpyrazol-4-yl)quinolin-4-yl]oxyphenyl]cyclopropane-1,1-dicarboxamide], for which the pIC50 on KDR and at AXL was 7.00 to 8.00 in each case.
Regarding `CNC(=O)c1cc2c(Oc3ccc(NC(=O)C4(C(=O)Nc5ccc(F)cc5)CC4)cc3)ccnc2cc1-c1cnn(C)c1` [Compound 77, 1-N′-(4-Fluorophenyl)-1-N-[4-[6-(methylcarbamoyl)-7-(1-methylpyrazol-4-yl)quinolin-4-yl]oxyphenyl]cyclopropane-1,1-dicarboxamide], the pIC50 at KDR and on AXL was 7.00 to 8.00 throughout.
As to `O=C(Nc1ccc(F)cc1)C1(C(=O)Nc2ccc(Oc3ccnc4cc(-c5cnn(C6CCNCC6)c5)ccc34)cc2)CC1` [Compound 60, 1-N′-(4-Fluorophenyl)-1-N-[4-[7-(1-piperidin-4-ylpyrazol-4-yl)quinolin-4-yl]oxyphenyl]cyclopropane-1,1-dicarboxamide], the pIC50 at KDR is 7.00 to 8.00; against AXL it was ≥ 8.00.
On the same counts, the results for `CC(C)(C)n1cc(-c2ccc3c(Oc4ccc(NC(=O)C5(C(=O)Nc6ccc(F)cc6)CC5)cc4)ccnc3c2)cn1` [Compound 23, 1-N-[4-[7-(1-tert-Butylpyrazol-4-yl)quinolin-4-yl]oxyphenyl]-1-N′-(4-fluorophenyl)cyclopropane-1,1-dicarboxamide] are 7.00 to 8.00 and 7.00 to 8.00.
As to `COc1cc2c(Oc3ccc(NC(=O)C4(C(=O)Nc5ccc(F)cc5)CC4)cc3)ccnc2cc1-c1cnn(C)c1` [Compound 76, 1-N′-(4-Fluorophenyl)-1-N-[4-[6-methoxy-7-(1-methylpyrazol-4-yl)quinolin-4-yl]oxyphenyl]cyclopropane-1,1-dicarboxamide], the values for the negative logarithm of the IC50 (pIC50) on KDR and against AXL were 7.00 to 8.00 and ≥ 8.00, respectively.
In the same order, the values of `O=C(Nc1ccc(F)cc1)C1(C(=O)Nc2ccc(Oc3ccnc4cc(-c5ccn[nH]5)ccc34)cc2)CC1` [Compound 68, 1-N′-(4-Fluorophenyl)-1-N-[4-[7-(1H-pyrazol-5-yl)quinolin-4-yl]oxyphenyl]cyclopropane-1,1-dicarboxamide] are 7.00 to 8.00 and ≥ 8.00.
`CC1Cc2cc(F)ccc2N1C(=O)C1(C(=O)Nc2ccc(Oc3ccnc4cc(-c5cnn(C)c5)ccc34)cc2)CC1` (stereo not shown) [Compound 80, 1-(5-Fluoro-2-methyl-2,3-dihydroindole-1-carbonyl)-N-[4-[7-(1-methylpyrazol-4-yl)quinolin-4-yl]oxyphenyl]cyclopropane-1-carboxamide]: the pIC50 against KDR is 6.00 to 7.00; against AXL, 7.00 to 8.00.
Compound `O=C(Nc1ccc(F)cc1)C1(C(=O)Nc2ccc(Oc3ccnc4cc(-c5cccnc5O)ccc34)cc2)CC1` [Compound 52, 1-N′-(4-Fluorophenyl)-1-N-[4-[7-(2-hydroxypyridin-3-yl)quinolin-4-yl]oxyphenyl]cyclopropane-1,1-dicarboxamide] gave a pIC50 against AXL of 6.52 to 7.00.
Turning to `O=C(Nc1ccc(F)cc1)C1(C(=O)Nc2ccc(Oc3ccnc4cc(-c5ccncn5)ccc34)cc2)CC1` [Compound 114, 1-N′-(4-Fluorophenyl)-1-N-[4-(7-pyrimidin-4-ylquinolin-4-yl)oxyphenyl]cyclopropane-1,1-dicarboxamide], at AXL, the pIC50 was 7.00 to 8.00.
For the compound `CC(C)n1cc(-c2ccc3c(Oc4ccc(NC(=O)C5(C(=O)Nc6ccc(F)cc6)CC5)cc4)ccnc3c2)cn1` [Compound 21, 1-N′-(4-Fluorophenyl)-1-N-[4-[7-(1-propan-2-ylpyrazol-4-yl)quinolin-4-yl]oxyphenyl]cyclopropane-1,1-dicarboxamide], the pIC50 against AXL was ≥ 8.00.
On the same count and under the same terms, under `O=C(Nc1ccc(F)cc1)C1(C(=O)Nc2cc(F)c(Oc3ccnc4cc(-c5cccnc5)ccc34)cc2F)CC1` [Compound 115, 1-N′-[2,5-Difluoro-4-(7-pyridin-3-ylquinolin-4-yl)oxyphenyl]-1-N-(4-fluorophenyl)cyclopropane-1,1-dicarboxamide] stands ≥ 8.00; under `O=C(Nc1ccc(F)cc1)C1(C(=O)Nc2ccc(Oc3ccnc4cc(-c5cncc(F)c5)ccc34)cc2)CC1` [Compound 45, 1-N′-(4-Fluorophenyl)-1-N-[4-[7-(5-fluoropyridin-3-yl)quinolin-4-yl]oxyphenyl]cyclopropane-1,1-dicarboxamide], 7.00 to 8.00; under `Cc1cc2c(Oc3cc(F)c(NC(=O)C4(C(=O)Nc5ccc(F)cc5)CC4)cc3F)ccnc2cc1-c1ncc[nH]1` [Compound 121, 1-N′-[2,5-Difluoro-4-[7-(1H-imidazol-2-yl)-6-methylquinolin-4-yl]oxyphenyl]-1-N-(4-fluorophenyl)cyclopropane-1,1-dicarboxamide], ≥ 8.00.
With `Cc1cc2c(Oc3cc(Cl)c(NC(=O)C4(C(=O)Nc5ccc(F)cc5)CC4)cc3F)ccnc2cc1-c1cnn(C)c1` [Compound 112, 1-N′-[2-Chloro-5-fluoro-4-[6-methyl-7-(1-methylpyrazol-4-yl)quinolin-4-yl]oxyphenyl]-1-N-(4-fluorophenyl)cyclopropane-1,1-dicarboxamide], the negative-log IC50 (pIC50) at AXL is 7.00 to 8.00.
Still for that read-out and setting: under `O=C(Nc1ccc(F)cc1)C1(C(=O)Nc2ccc(Oc3ccnc4cc(-c5ccc(O)nc5)ccc34)cc2)CC1` [Compound 51, 1-N′-(4-Fluorophenyl)-1-N-[4-[7-(6-hydroxypyridin-3-yl)quinolin-4-yl]oxyphenyl]cyclopropane-1,1-dicarboxamide] stands ≥ 8.00; under `O=C(Nc1ccc(F)cc1)C1(C(=O)Nc2ccc(Oc3ccnc4cc(-c5ccnc(F)c5)ccc34)cc2)CC1` [Compound 33, 1-N′-(4-Fluorophenyl)-1-N-[4-[7-(2-fluoropyridin-4-yl)quinolin-4-yl]oxyphenyl]cyclopropane-1,1-dicarboxamide], 7.00 to 8.00.
As for `Cc1cc(-c2ccc3c(Oc4ccc(NC(=O)C5(C(=O)Nc6ccc(F)cc6)CC5)cc4)ccnc3c2)ccn1` [Compound 30, 1-N′-(4-Fluorophenyl)-1-N-[4-[7-(2-methylpyridin-4-yl)quinolin-4-yl]oxyphenyl]cyclopropane-1,1-dicarboxamide], the pIC50 at AXL is 7.00 to 8.00.
Still for that read-out and setting: then `O=C(Nc1ccc(F)cc1)C1(C(=O)Nc2ccc(Oc3ccnc4cc(-c5ccc[n+]([O-])c5)ccc34)cc2)CC1` [Compound 109, 1-N′-(4-Fluorophenyl)-1-N-[4-[7-(1-oxidopyridin-1-ium-3-yl)quinolin-4-yl]oxyphenyl]cyclopropane-1,1-dicarboxamide], with ≥ 8.00; and `O=C(Nc1ccc(F)cc1)C1(C(=O)Nc2ccc(Oc3ccnc4cc(-c5cc6n(n5)CCC6)ccc34)cc2)CC1` [Compound 124, 1-N-[4-[7-(5,6-Dihydro-4H-pyrrolo[1,2-b]pyrazol-2-yl)quinolin-4-yl]oxyphenyl]-1-N′-(4-fluorophenyl)cyclopropane-1,1-dicarboxamide], with 7.00 to 8.00.
